Data: ChEMBL document CHEMBL3870312, “Rational modification of donepezil as multifunctional acetylcholinesterase inhibitors for the treatment of Alzheimer's disease” (Eur J Med Chem, 2016)
Calls of active or inactive are those of the source. The rule behind the calls is not given here.

How the values were obtained:
[1] = biological target: Cholinesterase (Equus caballus, UniProt P81908)
Description: Inhibition of equine serum BuChE using s-butyrylthiocholine iodide as substrate preincubated for 5 mins followed by substrate addition measured up to 3 mins by Ellman's method

[2] = biological target: Acetylcholinesterase (Electrophorus electricus, UniProt O42275)
Description: Inhibition of electric eel AChE using acetylthiocholine iodide as substrate preincubated for 5 mins followed by substrate addition measured up to 3 mins by Ellman's method

[3] = biological target: T1, Acetylcholinesterase (Homo sapiens, UniProt P22303)
Description: Inhibition of human erythrocytes AChE using acetylthiocholine iodide as substrate preincubated for 5 mins followed by substrate addition measured up to 3 mins by Ellman's method

[4] = biological target: Cholinesterase (Homo sapiens, UniProt P06276)
Description: Inhibition of human serum BuChE using s-butyrylthiocholine iodide as substrate preincubated for 5 mins followed by substrate addition measured up to 3 mins by Ellman's method

[5] = biological target: Amyloid-beta precursor protein (Homo sapiens) (UniProt P05067); details: at 20 µM
Description: Inhibition of self-mediated aggregation of amyloid beta (1 to 42 residues) (unknown origin) at 20 uM incubated for 46 to 48 hrs by Thioflavin T binding assay relative to control

[6] = in vitro; details: PAMPA
Description: Effective permeability of the compound after 18 hrs by PAMPA

[7] = system: Mus musculus; assay: Hepatotoxicity in Kunming mouse assessed as increase in number of inflammatory cells in portal fields of liver at 3 mg/kg, po for 6 days by hematoxylin and eosin-staining based microscopic analysis; type: toxicity, organism-based; details: in vivo, 144 h
[8] = system: Mus musculus; assay: Hepatotoxicity in Kunming mouse assessed as distinct fatty degeneration in hepatocytes at 3 mg/kg, po for 6 days by hematoxylin and eosin-staining based microscopic analysis; type: toxicity, organism-based; details: in vivo, 144 h
[9] = system: Mus musculus; assay: Hepatotoxicity in Kunming mouse assessed as area of necrosis in hepatocytes at 3 mg/kg, po for 6 days by hematoxylin and eosin-staining based microscopic analysis; type: toxicity, organism-based, Hepatocyte; details: 144 h
[10] = Inhibition of copper-mediated aggregation of amyloid beta (1 to 42 residues) (unknown origin) at 20 uM incubated for 46 to 48 hrs by thioflavin-T binding assay relative to control; type: physicochemical
[11] = biological target: T1, Acetylcholinesterase; assay: Mixed-type inhibition of human erythrocyte AChE preincubated for 15 mins followed by addition of acetylthiocholine iodide as substrate in varying concentrations by Lineweaver-Burk reciprocal plot analysis
[12] = organism: Rattus norvegicus; assay: Cytotoxicity against rat PC12 cells assessed as reduction in cell viability at 3.125 to 50 uM after 24 hrs by MTT assay; type: toxicity; details: pc-12, 24 h
[13] = system: Mus musculus; assay: Cognitive enhancement activity in po dosed scopolamine-induced memory deficit Kunming mouse model assessed as increase in step-through latency time treated for 1 hr before training followed by scopolamine challenge 30 mins before training measured 24 hrs after training trial by passive avoidance test; type: functional, organism-based
[14] = system: Mus musculus; assay: Toxicity in scopolamine-induced memory deficit Kunming mouse model assessed as change in body weight at 2.5 to 10 mg/Kg, po for 7 days; type: organism-based; details: in vivo, 168 h
[15] = system: Mus musculus; assay: Toxicity in scopolamine-induced memory deficit Kunming mouse model assessed as effect on survival at 2.5 to 10 mg/Kg, po for 7 days; type: organism-based; details: in vivo, 168 h
[16] = system: Mus musculus; assay: Hepatotoxicity in scopolamine-induced memory deficit Kunming mouse model assessed as increase in alanine aminotransferase levels at 10 mg/kg, po for 6 days; type: toxicity, organism-based; details: in vivo, 144 h
[17] = system: Mus musculus; assay: Hepatotoxicity in scopolamine-induced memory deficit Kunming mouse model assessed as increased aspartate aminotransferase at 10 mg/Kg, po for 6 days; type: toxicity, organism-based; details: in vivo, 144 h
[18] = system: Mus musculus; assay: Hepatotoxicity in scopolamine-induced memory deficit Kunming mouse model assessed as increase in number of inflammatory cells in portal fields of liver at 10 mg/Kg, po for 6 days by hematoxylin and eosin-staining based microscopic analysis; type: toxicity, organism-based; details: in vivo, 144 h
[19] = system: Mus musculus; assay: Hepatotoxicity in scopolamine-induced memory deficit Kunming mouse model assessed as area of necrosis in hepatocytes at 10 mg/Kg, po for 6 days by hematoxylin and eosin-staining based microscopic analysis; type: toxicity, organism-based, Hepatocyte; details: 144 h
[20] = system: Mus musculus; assay: Hepatotoxicity in scopolamine-induced memory deficit Kunming mouse model assessed as distinct fatty degeneration in hepatocytes at 10 mg/Kg, po for 6 days by hematoxylin and eosin-staining based microscopic analysis; type: toxicity, organism-based; details: in vivo, 144 h
[21] = Metal chelating activity assessed as Zn2+-compound complex formation at 50 uM by fluorescence spectrophotometry; type: physicochemical
[22] = Metal chelating activity of the compound assessed as formation of ferric complex at 50 uM by fluorescence spectrophotometry; type: physicochemical
[23] = Metal chelating activity of the compound assessed as formation of copper complex at 50 uM by fluorescence spectrophotometry; type: physicochemical
[24] = Metal chelating activity of the compound assessed as formation of copper complex at 10 uM by UV-vis spectrometry; type: physicochemical
[25] = Metal chelating activity assessed as mole fraction of compound required to show 1:1 stoichiometry for Cu2+-compound complex at 10 uM by UV-vis spectrometry; type: physicochemical
[26] = Inhibition of copper-mediated aggregation of amyloid beta (1 to 42 residues) (unknown origin) incubated for 46 to 48 hrs by thioflavin-T binding assay; type: physicochemical
[27] = system: PC-12; assay: Neuroprotective activity against Cu2+-amyloid beta (1 to 42 residues) induced cell death in rat PC12 cells assessed as increase in cell viability at 2.5 to 20 uM preincubated for 24 hrs followed by Cu2+-amyloid beta (1 to 42 residues) addition measured after 24 hrs by MTT assay; type: functional, cell-based
[28] = system: PC-12; assay: Neuroprotective activity against amyloid beta (1 to 42 residues) induced cell death in rat PC12 cells assessed as increase in cell viability at 10 to 20 uM preincubated for 24 hrs followed by amyloid beta (1 to 42 residues) addition measured after 24 hrs by MTT assay; type: functional, cell-based
[29] = system: PC-12; assay: Neuroprotective activity against Cu2+-amyloid beta (1 to 42 residues) induced cell death in rat PC12 cells by phase-contrast microscopy analysis; type: functional, cell-based
[30] = system: PC-12; assay: Neuroprotective activity against amyloid beta (1 to 42 residues) induced cell death in rat PC12 cells by phase-contrast microscopy analysis; type: functional, cell-based

Sequence of Acetylcholinesterase (Electrophorus electricus, UniProt O42275) (O42275 whole entry): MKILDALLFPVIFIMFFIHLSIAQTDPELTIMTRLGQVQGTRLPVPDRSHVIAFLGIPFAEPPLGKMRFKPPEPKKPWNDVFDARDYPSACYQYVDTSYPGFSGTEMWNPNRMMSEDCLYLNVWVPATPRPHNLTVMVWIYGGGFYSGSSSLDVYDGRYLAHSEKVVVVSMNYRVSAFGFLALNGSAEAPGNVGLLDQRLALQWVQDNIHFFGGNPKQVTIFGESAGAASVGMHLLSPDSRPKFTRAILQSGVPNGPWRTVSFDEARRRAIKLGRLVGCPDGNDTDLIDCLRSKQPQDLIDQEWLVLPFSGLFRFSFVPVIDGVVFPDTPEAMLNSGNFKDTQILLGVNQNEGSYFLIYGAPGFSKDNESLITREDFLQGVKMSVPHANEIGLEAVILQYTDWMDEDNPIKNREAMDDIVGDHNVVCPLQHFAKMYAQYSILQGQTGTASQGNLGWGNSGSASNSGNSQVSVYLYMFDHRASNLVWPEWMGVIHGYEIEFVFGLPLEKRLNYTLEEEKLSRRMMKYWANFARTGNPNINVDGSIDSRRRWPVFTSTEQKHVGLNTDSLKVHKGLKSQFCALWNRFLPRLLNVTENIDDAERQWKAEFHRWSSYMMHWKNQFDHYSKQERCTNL
Sequence of Cholinesterase (Homo sapiens, UniProt P06276) (P06276 whole entry): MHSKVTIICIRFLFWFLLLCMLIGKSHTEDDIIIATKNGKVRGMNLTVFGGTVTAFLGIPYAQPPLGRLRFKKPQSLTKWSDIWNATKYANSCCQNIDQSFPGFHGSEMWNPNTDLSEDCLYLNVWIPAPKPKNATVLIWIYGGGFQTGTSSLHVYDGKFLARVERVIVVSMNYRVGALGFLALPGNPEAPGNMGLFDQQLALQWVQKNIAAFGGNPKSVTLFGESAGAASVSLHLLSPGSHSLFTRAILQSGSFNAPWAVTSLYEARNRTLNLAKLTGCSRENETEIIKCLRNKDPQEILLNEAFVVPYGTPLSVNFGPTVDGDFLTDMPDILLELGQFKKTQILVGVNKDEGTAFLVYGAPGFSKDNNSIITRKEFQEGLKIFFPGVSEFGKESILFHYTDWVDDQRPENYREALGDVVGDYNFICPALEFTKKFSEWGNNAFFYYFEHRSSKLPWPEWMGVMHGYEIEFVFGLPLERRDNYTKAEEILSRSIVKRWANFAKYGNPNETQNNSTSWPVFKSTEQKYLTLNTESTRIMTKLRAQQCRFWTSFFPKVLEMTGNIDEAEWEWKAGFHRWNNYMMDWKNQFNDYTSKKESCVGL
T1 sequence (P22303 whole entry): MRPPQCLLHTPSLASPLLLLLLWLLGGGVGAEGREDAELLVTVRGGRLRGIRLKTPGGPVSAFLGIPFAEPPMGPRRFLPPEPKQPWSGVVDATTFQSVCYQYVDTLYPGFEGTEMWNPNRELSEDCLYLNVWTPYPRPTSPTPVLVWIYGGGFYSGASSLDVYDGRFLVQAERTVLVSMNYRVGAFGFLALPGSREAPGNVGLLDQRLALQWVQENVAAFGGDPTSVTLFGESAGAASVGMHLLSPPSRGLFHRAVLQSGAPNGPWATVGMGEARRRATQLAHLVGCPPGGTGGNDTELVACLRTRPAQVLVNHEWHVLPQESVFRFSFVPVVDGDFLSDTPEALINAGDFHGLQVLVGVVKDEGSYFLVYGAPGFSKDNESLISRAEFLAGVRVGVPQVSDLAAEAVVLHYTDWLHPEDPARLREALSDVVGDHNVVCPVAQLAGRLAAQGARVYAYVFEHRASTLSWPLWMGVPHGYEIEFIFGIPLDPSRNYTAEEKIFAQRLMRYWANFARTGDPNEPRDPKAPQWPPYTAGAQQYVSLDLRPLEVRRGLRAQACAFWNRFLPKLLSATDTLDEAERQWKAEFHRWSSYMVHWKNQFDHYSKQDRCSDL
Sequence of Amyloid-beta precursor protein (Homo sapiens) (P05067 whole entry): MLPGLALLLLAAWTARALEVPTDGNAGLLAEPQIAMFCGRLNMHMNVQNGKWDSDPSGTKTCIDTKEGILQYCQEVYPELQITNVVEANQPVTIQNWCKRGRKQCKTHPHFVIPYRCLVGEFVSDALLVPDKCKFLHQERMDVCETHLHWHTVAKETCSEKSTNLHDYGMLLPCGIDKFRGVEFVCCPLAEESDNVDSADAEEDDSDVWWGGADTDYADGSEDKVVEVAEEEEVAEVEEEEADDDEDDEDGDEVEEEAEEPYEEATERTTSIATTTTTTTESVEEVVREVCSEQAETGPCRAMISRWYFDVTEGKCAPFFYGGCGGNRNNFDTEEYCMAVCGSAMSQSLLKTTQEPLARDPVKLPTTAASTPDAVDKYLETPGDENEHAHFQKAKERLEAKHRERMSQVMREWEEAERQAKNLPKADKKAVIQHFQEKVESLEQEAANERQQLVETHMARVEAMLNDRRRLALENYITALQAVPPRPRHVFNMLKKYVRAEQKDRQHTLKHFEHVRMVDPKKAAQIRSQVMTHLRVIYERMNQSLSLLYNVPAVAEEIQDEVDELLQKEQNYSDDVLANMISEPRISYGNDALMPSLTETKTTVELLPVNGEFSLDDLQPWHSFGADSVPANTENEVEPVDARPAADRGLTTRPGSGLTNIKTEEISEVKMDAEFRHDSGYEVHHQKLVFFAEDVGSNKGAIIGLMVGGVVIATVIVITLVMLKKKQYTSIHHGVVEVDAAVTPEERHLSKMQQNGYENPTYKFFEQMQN
Sequence of Cholinesterase (Equus caballus, UniProt P81908) (P81908 whole entry): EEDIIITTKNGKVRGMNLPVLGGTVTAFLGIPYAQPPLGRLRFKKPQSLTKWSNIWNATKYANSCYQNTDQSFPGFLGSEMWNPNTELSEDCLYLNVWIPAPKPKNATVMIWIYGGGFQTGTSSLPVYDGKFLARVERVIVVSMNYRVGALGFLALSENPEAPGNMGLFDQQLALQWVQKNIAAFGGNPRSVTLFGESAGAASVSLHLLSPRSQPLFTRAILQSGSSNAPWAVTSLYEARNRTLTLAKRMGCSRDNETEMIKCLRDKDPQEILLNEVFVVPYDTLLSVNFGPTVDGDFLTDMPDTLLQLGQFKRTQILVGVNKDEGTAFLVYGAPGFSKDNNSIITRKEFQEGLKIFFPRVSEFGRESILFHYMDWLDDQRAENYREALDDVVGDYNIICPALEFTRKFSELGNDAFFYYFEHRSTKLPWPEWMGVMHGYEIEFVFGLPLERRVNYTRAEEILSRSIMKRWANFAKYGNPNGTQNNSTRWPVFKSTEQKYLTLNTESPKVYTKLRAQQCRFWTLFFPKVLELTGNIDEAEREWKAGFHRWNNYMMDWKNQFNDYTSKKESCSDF

Structure (SMILES) | IC50 [1] [µM] | IC50 [2] [µM] | IC50 [3] [µM] | IC50 [4] [µM] | inhibition [5] [%] | Papp at 18 h [6] [×10⁻⁶ cm/s] | further results
COc1cc2c(cc1OC)C(=O)C(CC1CCN(Cc3cccc(Cl)n3)CC1)C2 (configuration not stated) | 31.6 | 0.409 | 0.883 | 78.7 | – | – | –
COc1cc2c(cc1OC)C(=O)C(CC1CCN(Cc3cccc(F)c3)CC1)C2 (configuration not stated) | 2.66 | 0.068 | 0.054 | 26.7 | > 10 | 11.5 | –
COc1cc2c(cc1OC)C(=O)C(CC1CCN(Cc3cccc(F)n3)CC1)C2 (configuration not stated) | 21.1 | 0.246 | 0.195 | 38.9 | – | – | –
COc1cc2c(cc1OC)C(=O)C(CC1CCN(Cc3ccc(C(F)(F)F)cc3)CC1)C2 (configuration not stated) | 3.98 | 2.03 | 5.43 | – | – | – | –
CN1[C@@H]2C[C@@H](OC(=O)[C@H](CO)c3ccccc3)C[C@H]1[C@@H]1O[C@H]12 | – | – | – | – | – | – | Activity [7]: Non-Toxic; Activity [8]: Non-Toxic; Activity [9]: Non-Toxic
COc1cc2c(cc1OC)C(=O)C(CC1CCN(Cc3cccc(C)c3)CC1)C2 (configuration not stated) | 5.83 | 0.108 | 0.088 | 28.1 | > 10 | 12.6 | inhibition (INH) [10]: < 10%
COC(=O)c1cccc(CN2CCC(CC3Cc4cc(OC)c(OC)cc4C3=O)CC2)n1 (configuration not stated) | 29.5 | 0.511 | 5.78 | 25.4 | – | – | –
COc1cc2c(cc1OC)C(=O)C(CC1CCN(Cc3ccc4ccccc4n3)CC1)C2 (configuration not stated) | 9.68 | 8.71 | 8.43 | 6.35 | – | – | –
COc1cc2c(cc1OC)C(=O)C(CC1CCN(Cc3ccccn3)CC1)C2 (configuration not stated) | 7.83 | 1.09 | 0.147 | 38.6 | – | – | –
COc1cc2c(cc1OC)C(=O)C(CC1CCN(Cc3ccccc3F)CC1)C2 (configuration not stated) | 3.71 | 0.043 | 0.032 | 12.8 | > 10 | 13.7 | inhibition [11]: Active; Activity [12]: Non-Toxic; Activity [13]: Dose-dependent effect; Activity [14]: Non-Toxic; Activity [15]: Non-Toxic; Activity [16]: Non-Toxic; Activity [17]: Non-Toxic; Activity [18]: Non-Toxic; Activity [19]: Non-Toxic; Activity [20]: Non-Toxic; inhibition (INH) [10]: < 10%
COc1cc2c(cc1OC)C(=O)C(CC1CCN(Cc3ccccc3Cl)CC1)C2 (configuration not stated) | 3.2 | 0.06 | 0.097 | 18.8 | – | – | –
COc1cc2c(cc1OC)C(=O)C(CC1CCN(Cc3cccc(C)n3)CC1)C2 (configuration not stated) | 20.5 | 0.085 | 0.073 | 65.7 | 18.5 | 9.7 | inhibition [11]: Active; Activity [21]: Active; Activity [22]: Active; Activity [23]: Active; Activity [24]: Active; Activity [25]: 0.9 molar ratio; inhibition (INH) [26]: Dose-dependent effect; Activity [12]: Non-Toxic; Activity [27]: Active; Activity [28]: Active; Activity [29]: Active; Activity [30]: Active; Activity [13]: Dose-dependent effect; Activity [14]: Non-Toxic; Activity [15]: Non-Toxic; Activity [16]: Non-Toxic; Activity [17]: Non-Toxic; Activity [18]: Non-Toxic; Activity [19]: Non-Toxic; Activity [20]: Non-Toxic
COc1cc2c(cc1OC)C(=O)C(CC1CCN(Cc3ncccc3C)CC1)C2 (configuration not stated) | 15.6 | 0.108 | 0.113 | 49.2 | 29.3 | 8.4 | Activity [12]: Non-Toxic
COc1cc2c(cc1OC)C(=O)C(CC1CCN(Cc3ccccc3C(F)(F)F)CC1)C2 (configuration not stated) | 31.7 | 0.7 | 4.87 | 41.4 | – | – | –
